Assay results: patent US20250099517A1, “Use of Lactobacillus reuteri Y7 strain for prevention or treatment of ocular diseases” (Taipei Medical University, priority 2023, published 2025)
One block for each compound: values may come before it.

How the values were obtained:
Assay type in all cases: in vivo, C57BL/6 mice
[1] = tested on: MCP-1, IL-18, NLRP3, NF-KB p65, Caspase1 gene expression; assay: q-PCR of inflammation-related gene expression in eyes; details: for gene expression of MCP-1 compared with the BL group / gene expression of NF-KB p65 compared with the BL group: p<0.05; for gene expression of Caspase1 / gene expression of IL-18 / gene expression of NLRP3: versus increase in BL group
Protocol: The C57BL/6 mice, which weighed between 23 and 25 g, were divided into seven groups randomly. In each group, the six mice induced by blue light successfully were incorporated in experiments. The samples dissolved in deuterium-depleted water (DDW) were fed to mice through oral tubes once a day. The groups were named and introduced as follows: • (1) Solvent not classified group (NC): The mice were fed with 0.2 ml deuterium-depleted water (DDW) through tubes; • (2) Negative control group (Blue light (BL)): The mice were fed with 0.2 ml deuterium-depleted water (DDW) through tubes and exposed to blue light; • (3) Low-dosage Y7 probiotics group […]): The mice were fed with low-dosage Y7 probiotics (probiotic counts of 1.0×10^8 CFU/ml dissolved in 0.2 ml DDW per day) and exposed to blue light; • (4) High-dosage Y7 probiotics group […]): The mice were fed with high-dosage Y7 probiotics (probiotic counts of 1.0×10^9 CFU/ml dissolved in 0.2 ml DDW per day) and exposed to blue light; • (5) Positive control group (lutein (LU)): The mice were fed with lutein and exposed to blue light. The recommended human dosage of lutein is 30 mg. The mouse cage (48×25×20 cm) placed inside a stainless ventilated box was equipped with blue light boards as blue light sources around and above. In the experiment of animals exposed to blue light, six-week-old mice staying in the mouse cage were fed with drinking water as well as fodders and exposed to 400 Lux blue light illumination under the light-dark cycle of 12-hour light and 12-hour dark. The experiment was aimed at causing mice' late dry macular disease induced by chronic light injuries for simulating a human being's macular disease after long-term exposure to short-wavelength blue light from 3C products in daily life. The eyes of a mouse sacrificed were collected for the following purposes. RNAs extracted with Trizol were reverse-transcribed to cDNAs. Then, the real-time quantitative polymerase chain reaction was enabled to detect gene expressions related to inflammatory hormones and apoptosis such as TNF-α, IL-1B, IL-6, Bax, Bcl-2, Caspase1, Caspase3 and NLRP3 for comparisons with the endogenous level of β-actin, GAPDH or 18S rRNA. [table] The gene expressions related to a mouse's ocular inflammation, for example, MCP-1 (FIG. 8a), IL-18 (FIG. 8b), NLRP3 (FIG. 8c), NF-KB p65 (FIG. 8d), Caspase1 (FIG. 8e), TNF-α (FIG. 8f), IL-6 (FIG. 8g) and IL-1β (FIG. 8h), were analyzed in the experiment. […] In summary, the intervention of Y7 probiotics relieved ocular inflammation attributed to blue light.

[2] = body weights of mice during the experiment; details: LU, lutein 6.15 mg/kg bw oral daily, blue light, mean±S.E.M., in g (unit assumed)
Protocol: (§1) In the present invention, six-week-old male C57BL/6 mice were placed in a breeding cage in which the following feeding conditions were kept: temperature, 22±2° C., humidity, 55±5%, and the light-dark cycle of 12-hour light and 12-hour dark. The mice were fed with fodders at the adaptive phase for one week; general solid fodders for test animals were administered to mice of the control group and mice during the adaptive phase. The initial day was defined as Day 0 when the adaptive phase for the mice was over. From the next week, the mice were interfered with samples under test and exposed to blue light. During the experiments, the mice were monitored for weights as well as water intakes and checked for any physiological change. The data for experiments through electroretinography (ERG), fndus photography (FP), fundus fluorescein angiograph (FFA), spectral-domain optical coherence tomography (SD-OCT) and intraocular pressure (IOP) were collected at Day 0, Day 21 and Day 35, as shown in FIG. 1 for the experimental process. The C57BL/6 mice, which weighed between 23 and 25 g, were divided into seven groups randomly. In each group, the six mice induced by blue light successfully were incorporated in experiments. The samples dissolved in deuterium-depleted water (DDW) were fed to mice through oral tubes once a day. The groups were named and introduced as follows: • (1) Solvent not classified group (NC): The mice were fed with 0.2 ml deuterium-depleted water (DDW) through tubes; • (2) Negative control group (Blue light (BL)): The mice were fed with 0.2 ml deuterium-depleted water (DDW) through tubes and exposed to blue light; • (3) Low-dosage Y7 probiotics group […]): The mice were fed with low-dosage Y7 probiotics (probiotic counts of 1.0×10^8 CFU/ml dissolved in 0.2 ml DDW per day) and exposed to blue light; • (4) High-dosage Y7 probiotics group […]): The mice were fed with high-dosage Y7 probiotics (probiotic counts of 1.0×10^9 CFU/ml dissolved in 0.2 ml DDW per day) and exposed to blue light; • (5) Positive control group (lutein (LU)): The mice were fed with lutein and exposed to blue light. The recommended human dosage of lutein is 30 mg. The mouse cage (48×25×20 cm) placed inside a stainless ventilated box was equipped with blue light boards as blue light sources around and above. In the experiment of animals exposed to blue light, six-week-old mice staying in the mouse cage were fed with drinking water as well as fodders and exposed to 400 Lux blue light illumination under the light-dark cycle of 12-hour light and 12-hour dark. The experiment was aimed at causing mice' late dry macular disease induced by chronic light injuries for simulating a human being's macular disease after long-term exposure to short-wavelength blue light from 3C products in daily life. All data written as the form of mean±standard error of the mean (S.E.M.) were used in the statistical analysis through the one-way ANOVA and the Newman-Keuls test; p<0.05 denoted statistical difference. In the experiment, the software for the statistical analysis was Graph pad Prism (v9.2.0). The data such as food intake, water intake, body weight, organ weight and other clinical examination data were analyzed with the one-way ANOVA.

[3] = water intakes of mice during the experiment; details: LU, lutein 6.15 mg/kg bw oral daily, blue light, Mean±S.E.M., n=6
Protocol: as §1

Compound: Lactobacillus reuteri Y7 [Y7 probiotics]
- gene expression of MCP-1 compared with the BL group ([1]; Y7H high-dosage group): reduced significantly
- gene expression of NF-KB p65 compared with the BL group ([1]; Y7H high-dosage group): reduced significantly
- gene expression of Caspase1 ([1]; Y7H high-dosage group): decreased
- gene expression of IL-18 ([1]; Y7H high-dosage group): decreased
- gene expression of NLRP3 ([1]; Y7H high-dosage group): decreased
- gene expression of MCP-1 compared with the BL group ([1]; Y7L low-dosage group): reduced significantly
- gene expression of NF-KB p65 compared with the BL group ([1]; Y7L low-dosage group): reduced significantly
- gene expression of Caspase1 ([1]; Y7L low-dosage group): decreased
- gene expression of IL-18 ([1]; Y7L low-dosage group): decreased
- gene expression of NLRP3 ([1]; Y7L low-dosage group): decreased

- water intakes of mice ([3]; Day7): 3.69 ± 0.86
- water intakes of mice ([3]; Day14): 4.17 ± 1.05
- water intakes of mice ([3]; Day21): 4.71 ± 0.42
- water intakes of mice ([3]; Day28): 3.65 ± 0.61
- water intakes of mice ([3]; Day35): 3.88 ± 0.31
Compound: CC1=C[C@H](O)CC(C)(C)[C@H]1/C=C/C(C)=C/C=C/C(C)=C/C=C/C=C(C)/C=C/C=C(C)/C=C/C1=C(C)C[C@@H](O)CC1(C)C [lutein, reference compound]
- body weights of mice ([2]; Day 0): 21.25 ± 1.52
- body weights of mice ([2]; Day 7): 21.35 ± 1.97
- body weights of mice ([2]; Day 14): 22.12 ± 2.09
- body weights of mice ([2]; Day 21): 22.12 ± 2.09
- body weights of mice ([2]; Day 28): 22.40 ± 1.97
- body weights of mice ([2]; Day 35): 22.88 ± 2.86
